Reference: US8673552B2, “Druggable regions in the dengue virus envelope glycoprotein and methods of using the same” (Children's Medical Center Corporation, priority 2003, dated 2014)
Ends that are not written are not given here.

Biological target: T1, trimeric, post-fusion form of sE (dengue envelope protein E, residues 1-395) (Dengue virus type 2, UniProt P12823)
T1 construct: post-fusion form of sE, the fragment of E spanning residues 1-395; purchased Hawaii Biotech (Hawaii Biotechnology Group, Inc., Aiea, Hi.); host or cells: Drosophila melanogaster Schneider 2 cells (pMtt vector, prM-E preprotein processed during secretion)
Assay: fluorescence depolarization binding of stem peptides to sE trimer
Source text: FIG. 10 depicts fluorescence depolarization binding data for a peptide corresponding to residues 396-429 (in the “stem” region) of dengue envelope protein (E). FIG. 10A depicts a Kd analysis of the peptide's binding affinity to the trimeric, post-fusion form of E. FIG. 10B depicts a competitive binding analysis with the fluorescent and unlabeled peptide.
FIG. 11 depicts a fluorescence depolarization Kd analysis to measure the affinity between a peptide corresponding to residues 413-447 (in the “stem” region) of dengue envelope protein (E). and the trimeric, post-fusion form of E.
A peptide corresponding to residues 396-429 (in the “stem” region) of dengue envelope protein (E) binds with fairly high affinity and specificity to the trimeric, post-fusion form of sE, the fragment of E spanning residues 1-395, which we crystallized first in the pre-fusion form and then in the post-fusion form. We determined the dissociation constant (Kd) of the peptide from sE from fluorescence depolarization measurements using a fluorescently labeled version of the peptide. The Kd is around 6 μM. This indicates a fairly strong binding. FIG. 10 depicts the fluorescence depolarization results. The Kd is approximately equal to the concentration of sE at which the depolarization (in mP) reaches its half-maximal value (see FIG. 10A). […]

Molecule	competitive binding of fluorescent and unlabeled peptide (fluorescence depolarization, FIG. 10B, shows that binding is specific to one site of sE)	Kd
CC[C@H](C)[C@H](NC(=O)[C@H](C)NC(=O)[C@H](CCSC)NC(=O)[C@H](CCCNC(=N)N)NC(=O)[C@H](CCCCN)NC(=O)[C@H](C)NC(=O)CNC(=O)[C@H](CCCNC(=N)N)NC(=O)[C@H](CCSC)NC(=O)[C@@H](NC(=O)[C@@H](NC(=O)[C@H](CCC(=O)O)NC(=O)[C@H](Cc1ccccc1)NC(=O)[C@H](CCSC)NC(=O)[C@H](CCC(N)=O)NC(=O)CNC(=O)[C@@H](NC(=O)[C@H](CO)NC(=O)[C@@H](N)CO)[C@@H](C)CC)[C@@H](C)O)[C@@H](C)O)C(=O)N[C@@H](CC(C)C)C(=O)NCC(=O)N[C@@H](CC(=O)O)C(=O)N[C@H](C(=O)N[C@@H](C)C(=O)N[C@@H](Cc1c[nH]c2ccccc12)C(=O)N[C@@H](CC(=O)O)C(=O)N[C@@H](Cc1ccccc1)C(=O)NCC(=O)N[C@@H](CO)C(=O)N[C@@H](CC(C)C)C(=O)NCC(=O)NCC(=O)N[C@H](C(=O)N[C@@H](Cc1ccccc1)C(=O)O)C(C)C)[C@@H](C)O [396-429]	can be competed off of sE with unlabeled peptide	–
AILGDTAWDFGSLGGVFTSIGKALHQVFGAIYGAA [413-447]	–	~4 µM
